Measurements published in US20240391940A1, “FUSED RING-CONTAINING COMPOUND, APPLICATION THEREOF, AND COMPOSITION CONTAINING SAME” (GenEros Biopharma Ltd., priority 2020, published 2024).
Where “and” joins values, the source holds several entries; their conditions need not be identical. Equal entries are not always repeated.

Experiments:
[1] = system: Apoe KO mouse atherosclerosis model; experiment: Atherosclerosis model (Apoe KO mice, high-fat diet): blood lipid tests TCHO, TG, LDL-C, HDL-C; assay type: in vivo, C57BL/6 Apoe KO mice; set-up: blood lipids (CHO) in Apo E−/− mice / blood lipids (TG) in Apo E−/− mice / blood lipids (HDL-C) in Apo E−/− mice / blood lipids (LDL-C) in Apo E−/− mice: unit not given here; conditions: HFD + 284-60 mpk
Description: (§1) Method: Apoe KO mice were tested for basal blood lipid levels and divided into a normal control group and a high-fat group. After 8 weeks of housing, the mice from the high-fat group were divided into 4 groups of about 8: a normal diet group (Chow), a high-fat diet model group (HFD), an Atorvastatin positive group (HFD+atorvastatin 5 mpk, QD), and a GEN1-284s group (284-60 mpk, QD). Oral administration was performed for 8 consecutive weeks, and the effect of the compound on the following indicators in Apoe KO mice was observed: 4 blood lipid tests (TC, TG, HDL-C and LDL-C), aortic plaque En-face staining, and pathological oil red staining of the cardiac outflow tract.
(§2) Mice from the groups except for the normal diet control group (Chow) were fed with high-fat feed every day for […]. From week 9, each group was orally administered solvent or a corresponding test compound, and body weight data were recorded every day for 8 consecutive weeks. After the first 8 weeks' high-fat diet, blood samples were taken and centrifuged to separate serum, and the serum was tested for blood lipid levels (TCHO, TG, LDL-C and HDL-C). The mice were randomly grouped according to the TCHO results and body weight. During the subsequent 8 weeks of administration, blood lipid tests (TCHO, TG, LDL-C and HDL-C) were run once every 4 weeks.
Mice were fasted overnight, and blood (150 μL) was collected via mandibular blood sampling or eye ball removal (for endpoint only) and left at room temperature for 2 h. The blood was centrifuged at 4° C. at 7000 rpm for 10 min, and serum was pipetted, quick-frozen in dry ice and then stored at −80° C. before analysis. The serum was tested for the biochemical indicators TCHO, TG, LDL-C and HDL-C using kits and a microplate reader.

[2] = system: Apoe KO mouse atherosclerosis model; experiment: Atherosclerosis model: aortic plaque En-face staining and plaque area; assay type: in vivo, C57BL/6 Apoe KO mice; conditions: HFD + 284-60 mpk, PO QD 8 W, individual mice; in % (unit assumed)
Description: as §1, §2
At the end of the experiment, the mice were euthanized by CO2 inhalation, and their hearts and aortas (from the aortic arch to the iliac artery) were isolated. The isolated artery was dissected longitudinally from the aortic arch to the iliac artery, fixed in 4% paraformaldehyde for 30 min, synchronized with 60% isopropanol for 10 min, then stained in 60% oil red for 30 min, and then washed with 60% isopropanol 3 times for 5 min each time. Finally, the stained aorta was washed with deionized water and photographed. The proportion of red plaque areas was measured using Image Pro Plus 6.0 (Media Cybernetics, MD, US).

[3] = system: Apoe KO mouse atherosclerosis model; experiment: Atherosclerosis model: plaques in the cardiac (left ventricular) outflow tract; assay type: in vivo, C57BL/6 Apoe KO mice; conditions: HFD + 284-60 mpk, PO QD 8 W, individual mice; in %
Description: as §1, §2
Mouse heart samples were fixed overnight in 4% paraformaldehyde solution and dehydrated in sucrose solution. Then, the samples were embedded with OCT (Sakura, Japan) under a stereo microscope and made into 10 μm frozen sections. The sections were stained with oil red ORO and then subjected to routine pathological examinations. Images of the outflow tract were acquired under an optical microscope at 4× magnification, and high-quality morphological observations were carried out using an eyepiece with 20× magnification. The percentage of intimal lesions in the cardiac outflow tract was calculated. The detection criteria followed the criteria for histological classification of human atherosclerotic disease, which are described in detail below:
The area of plaques in the left ventricular outflow tract was measured using a microscope, and the proportion of plaques in the left ventricular outflow tract was calculated; this value reflects the degree of stenosis in the cardiac outflow tract vessel.

[4] = system: IMQ-induced psoriasis mouse model; experiment: IMQ-induced psoriasis mouse model (PASI scoring); assay type: in vivo, Balb/c mice; set-up: key to skin thickening in psoriasis mice (score) / skin redness in psoriasis mice (score) / skin scaling in psoriasis mice (score): 0 = none to 4 = very severe, per sign; conditions: 284-30 (30 mpk PO QD)
Description: Method: This experiment used a total of 19 mice. A natural skin observation control (n=1). 2 cm^2 of hair was shaved off the backs of […] on day 0, the stubble was removed with a mild depilatory cream, and the original skin was photographed. 62.5 mg of IMQ was applied to each of the mice. There was a mock group (n=6), a DEX (3 mg/kg, PO., qD) group (n=6), and a GEN1-284s (30 mg/kg, PO, qD) group (n=6). On the day of modeling, administration was performed in a volume of 100 μL/20 g body weight 4 h after IMQ application. The PASI scoring method was used to score the erythema, swelling and scaling on the skin of the mice. The experiment took a total of 6 days. The first day was set to day 0. IMQ application and administration were not performed on day 5. The mice were sacrificed with carbon dioxide at the end of the experiment.
The test animals were anesthetized with isoflurane. 2 cm^2 of hair was shaved off the backs of the mice, and the stubble was removed with a depilatory cream. IMQ application was performed for a total of 5 days, from day 0 to day 4. Scoring and IMQ application were performed every morning. Administration was performed in the afternoon
Desquamation (D): means epidermal cells flake off. The severity scores of skin lesions were as follows: • 0=none; this sign cannot be confirmed by careful observation • 1=mild; this sign can be confirmed but careful observation is required • 2=moderate; this sign is more visible and can be confirmed immediately • 3=severe; this sign is marked. • 4=very severe; this sign is very marked.
Induration I: 0—skin lesions are at the same level as normal skin; • 1—skin lesions are at slightly higher levels than normal skin surface; • 2—lesions moderately stick out and have round or slope-shaped borders; • 3—skin lesions are thick and markedly stick out; • 4—skin lesions are very thick and very markedly stick out.
Erythema E: • 0—no visible erythema; • 1—light red; • 2—red; • 3—dark red; • 4—the red is very dark

[5] = DAY 1, individual mice, 30 mg/kg
[6] = DAY 2, individual mice, 30 mg/kg
[7] = DAY 3, individual mice, 30 mg/kg
[8] = DAY 4, individual mice, 30 mg/kg
[9] = DAY 5, individual mice, 30 mg/kg

O=C(Cc1ccc2ncccc2c1)N1CCC(n2c(=O)n(COP(=O)(O)O)c3cccc(C(F)(F)F)c32)CC1 [Compound 284]
blood lipids (CHO) in Apo E−/− mice ([1]; Time 1, individual mice): 0.7986 and 0.8043 and 0.8562 and 0.7873 and 0.8278 and 1.372 and 1.184 | blood lipids (HDL-C) in Apo E−/− mice ([1]; Time 1, individual mice): 1.371 and 0.5315 and 1.057 and 0.9966 and 1.123 and 1.022 and 1.153 | blood lipids (LDL-C) in Apo E−/− mice ([1]; Time 1, individual mice): 0.6872 and 1.011 and 0.7654 and 0.5196 and 0.7151 and 1.05 and 1.587 | blood lipids (TG) in Apo E−/− mice ([1]; Time 1, individual mice): 0.4337 and 0.6308 and 0.6265 and 0.755 and 0.7465 and 0.995 and 1.031 | blood lipids (CHO) in Apo E−/− mice ([1]; Time 2, individual mice): 1.233 and 0.8693 and 1.165 and 0.9214 and 0.6106 and 1.043 and 0.9931 and 1.18 | blood lipids (HDL-C) in Apo E−/− mice ([1]; Time 2, individual mice): 2.122 and 0.9935 and 0.9789 and 1.033 and 0.8106 and 1.037 and 1.827 and 1.565 | blood lipids (LDL-C) in Apo E−/− mice ([1]; Time 2, individual mice): 1.374 and 0.6809 and 2.129 and 1.097 and 0.9183 and 1.393 and 1.144 and 0.9377 | blood lipids (TG) in Apo E−/− mice ([1]; Time 2, individual mice): 1.051 (2×) and 0.7809 and 1.131 and 1.303 and 1.009 and 1.451 and 1.117 | blood lipids (CHO) in Apo E−/− mice ([1]; Time 3, individual mice): 1.388 and 0.8444 and 1.354 and 0.78 and 1.427 and 1.407 and 1.241 and 1.477 | blood lipids (HDL-C) in Apo E−/− mice ([1]; Time 3, individual mice): 2.24 and 0.5362 and 0.9059 and 0.8576 and 1.163 and 1.018 (2×) and 1.067 | blood lipids (LDL-C) in Apo E−/− mice ([1]; Time 3, individual mice): 1.218 and 0.622 and 1.641 and 0.9017 and 1.494 and 1.215 and 2.628 and 1.406 | blood lipids (TG) in Apo E−/− mice ([1]; Time 3, individual mice): 0.8373 and 0.8015 and 1.448 and 0.7657 and 0.9226 and 1.222 and 1.943 and 1.2 | blood lipids (CHO) in Apo E−/− mice ([1]; Time 4, individual mice): 1.59 and 1.257 and 1.396 and 0.4939 and 0.5475 and 1.048 and 1.029 and 1.174 | blood lipids (HDL-C) in Apo E−/− mice ([1]; Time 4, individual mice): 1.04 and 0.5331 and 1.239 and 0.8199 and 0.5772 and 0.511 and 0.5552 and 1.57 | blood lipids (LDL-C) in Apo E−/− mice ([1]; Time 4, individual mice): 1.177 and 0.9355 and 0.8511 and 0.1725 and 0.4792 and 1.162 and 1.093 and 0.5061 | blood lipids (TG) in Apo E−/− mice ([1]; Time 4, individual mice): 1.059 and 0.6674 and 1.093 and 0.7289 and 1.028 and 0.7597 and 1.227 and 1.278 | atherosclerotic plaques in mice (proportion of arterial plaque area) [2]: 14.51 and 15.36 and 6.043 and 8.803 and 8.747 and 3.497 and 13.32 and 11.93 | plaques in the cardiac outflow tracts of mice (proportion of plaques in the left ventricular outflow tract) [3]: 3.172 and 8.444 and 8.652 and 1.278 and 0.625 and 2.394 and 7.368 | overall effect on the skin of psoriasis mice (score) ([4]; DAY 0, individual mice): 0 | skin redness in psoriasis mice (score) ([4]; DAY 0, individual mice): 0 | skin scaling in psoriasis mice (score) ([4]; DAY 0, individual mice): 0 | skin thickening in psoriasis mice (score) ([4]; DAY 0, individual mice): 0 | overall effect on the skin of psoriasis mice (score) [4, 5]: 1.667 and 1.167 and 1 and 2.333 and 2 and 0.6667 | skin redness in psoriasis mice (score) [4, 5]: 1 and 0.6667 and 0.8333 and 0.5 and 1.167 and 0 | skin scaling in psoriasis mice (score) [4, 5]: 0.1667 (3×) and 0 and 0.8333 and 0.3333 | skin thickening in psoriasis mice (score) [4, 5]: 0.5 (4×) and 0 and 1 | overall effect on the skin of psoriasis mice (score) [4, 6]: 1.5 (2×) and 2 and 1.333 and 2.333 (2×) | skin redness in psoriasis mice (score) [4, 6]: 0.8333 and 1 and 0.5 (2×) and 0.3333 and 0.1667 | skin scaling in psoriasis mice (score) [4, 6]: 0.1667 and 0.5 and 0.3333 and 0.8333 (2×) and 1 | skin thickening in psoriasis mice (score) [4, 6]: 0.5 (4×) and 1 (2×) | overall effect on the skin of psoriasis mice (score) [4, 7]: 3.333 (3×) and 2.333 and 2.5 and 2.167 | skin redness in psoriasis mice (score) [4, 7]: 1 (2×) and 0.8333 (2×) and 0.6667 and 0.5 | skin scaling in psoriasis mice (score) [4, 7]: 0.8333 and 0.5 and 1.833 and 0.6667 (2×) and 1.167 | skin thickening in psoriasis mice (score) [4, 7]: 1.5 (2×) and 1 (3×) and 0.5 | overall effect on the skin of psoriasis mice (score) [4, 8]: 2.667 and 3.667 (2×) and 2.833 (2×) and 3 | skin redness in psoriasis mice (score) [4, 8]: 1.333 and 1 (2×) and 0.6667 and 1.167 and 0.8333 | skin scaling in psoriasis mice (score) [4, 8]: 1.333 and 1.667 and 1.167 and 1 and 1.5 (2×) | skin thickening in psoriasis mice (score) [4, 8]: 0 and 1 (4×) and 0.5 | overall effect on the skin of psoriasis mice (score) [4, 9]: 3 (2×) and 2.667 and 4.333 and 3.5 (2×) | skin redness in psoriasis mice (score) [4, 9]: 1.5 and 0.6667 (3×) and 1 and 0.5 | skin scaling in psoriasis mice (score) [4, 9]: 1.5 and 1 and 2.333 and 1.333 and 1.833 and 2.5 | skin thickening in psoriasis mice (score) [4, 9]: 0 and 1 (4×) and 0.5
